Experimental data from patent US8022248B2, “Substituted acids for the treatment of respiratory diseases” (AstraZeneca AB, priority 2004, dated 2011).

Each compound was assayed against T1, rhCRTh2 (Homo sapiens, UniProt Q9Y5Y4) (assay: Ligand binding assay: [3H]PGD2 binding to HEK cell membranes containing CRTh2 (SPA beads)). Details: [3H]PGD2 displacement, HEK cell membranes expressing rhCRTh2/Gα16, 2 hours room temperature.
T1 construct: expressed in transfected cells; host or cells: HEK cells (membrane preparation)
T1 sequence (Q9Y5Y4 1-395): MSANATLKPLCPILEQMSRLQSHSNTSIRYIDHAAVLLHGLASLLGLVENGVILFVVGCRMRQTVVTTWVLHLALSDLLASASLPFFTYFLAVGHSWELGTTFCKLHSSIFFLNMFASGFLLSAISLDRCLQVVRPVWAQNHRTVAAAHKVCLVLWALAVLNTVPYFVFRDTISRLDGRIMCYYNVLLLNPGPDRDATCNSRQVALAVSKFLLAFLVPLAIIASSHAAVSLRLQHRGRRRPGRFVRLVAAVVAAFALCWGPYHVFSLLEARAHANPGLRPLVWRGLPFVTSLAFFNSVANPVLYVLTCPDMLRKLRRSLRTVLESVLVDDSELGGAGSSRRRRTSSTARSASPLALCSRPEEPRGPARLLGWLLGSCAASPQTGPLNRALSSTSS
Description: [^3H]PGD2 was purchased from Perkin Elmer Life Sciences with a specific activity of 100-210 Ci/mmol. All other chemicals were of analytical grade.
HEK cells expressing rhCRTh2/Gα16 were routinely maintained in DMEM containing 10% Foetal Bovine Serum (HyClone), 1 mg/ml geneticin, 2 mM L-glutamine and 1% non-essential amino acids. For the preparation of membranes, the adherent transfected HEK cells were grown to confluence in two layer tissue culture factories (Fisher, catalogue number TKT-170-070E). Maximal levels of receptor expression were induced by addition of […] sodium butyrate for the last 18 hours of culture. The adherent cells were washed once with phosphate buffered saline (PBS, 50 ml per cell factory) and detached by the addition of 50 ml per cell factory of ice-cold membrane homogenisation buffer [20 mM HEPES (pH 7.4), 0.1 mM dithiothreitol, 1 mM EDTA, 0.1 mM phenyl methyl sulphonyl fluoride and 100 μg/ml bacitracin]. […] The final pellet was re-suspended in 4 ml of membrane homogenisation buffer per cell factory used and the protein content determined. […]
All assays were performed in Corning clear bottomed, white 96-well NBS plates (Fisher). […] (The optimum coating concentrations were determined for each batch of membranes) The beads were pelleted by centrifugation (800×g for 7 minutes at 4° C.), washed once with assay buffer (50 mM HEPES pH 7.4 containing 5 mM magnesium chloride) and finally re-suspended in assay buffer at a bead concentration of 10 mg/ml.
Each assay contained 20 μl of 6.25 nM [^3H]PGD2, 20 μl membrane saturated SPA beads both in assay buffer and 10 μl of compound solution or 13,14-dihydro-15-keto prostaglandin D2 (DK-PGD2, for determination of non-specific binding, Cayman chemical company). […] The assay plate was incubated at room temperature for 2 hours and counted on a Wallac Microbeta liquid scintillation counter (1 minute per well).

Row | IC50 [nM] | Compound
1 | 2.51 | CCS(=O)(=O)c1ccc(Sc2cc(Cl)ccc2SCC(=O)O)c(Cl)c1 [Example 5, [(4-Chloro-2-{[2-chloro-4-(ethylsulfonyl)phenyl]thio}phenyl)thio]acetic acid]
2 | 2.51 | CCS(=O)(=O)Nc1ccc(Oc2cc(Cl)ccc2NCC(=O)O)c(Cl)c1 [Example 37, N-(4-Chloro-2-{2-chloro-4-[(ethylsulfonyl)amino]phenoxy}phenyl)glycine]
3 | 0.794 | CCS(=O)(=O)c1ccc(Oc2cc(Cl)ccc2SCC(=O)O)c(Cl)c1 [Example 7, ({4-Chloro-2-[2-chloro-4-(ethylsulfonyl)phenoxy]phenyl}thio)acetic acid]
